{"source": "patent US20080241870A1", "about": "“Composition For Creating an Artificial Bone Marrow Like Environment and Use Thereof” (NATIONAL CENTRE FOR CELL SCINECES, priority 2005, published 2008)", "system": "mesenchymal cells (ABME) with MNC", "test": "quantitative hematopoietic colony formation assay for ABME (HCFA-ABME): MNC with hematomodulator-contacted mesenchymal cells", "assay_type": "cell-based, human", "source_text": "As described above, the medium for blood cell formation employed may be IMDM with 20% serum and supplemented with interleukins such as IL-lbeta, IL-3, and IL-6, stem cell factor, lineage specific growth factors such as erythropoietin and GM-CSF, G-CSF; and methyl cellulose to the extent of 0.8%, the culture is maintained for 12-14 days under the culture conditions whereby blood cell colonies grow well or form colonies and clearly the growth is visible/distinguishable for further analysis and use. An assay designed in a similar manner to assess quantitative nature of ABME function is referred hereafter as ‘quantitative hematopoietic colony formation assay for ABME (HCFA-ABME)’.\nSeveral experiments were conducted to determine that mesenchymal cells exert direct influence on SPC cell-fate. In one set of experiments, mesenchymal cells were cultured separately and nearly 50,000 of them were exposed to a typical HCFA medium comprising 0.8% methyl cellulose in IMDM and 20-30% serum along with excess amounts of various purified and human specific cytokines and hematopoietic colony stimulating growth factors (from Stem cell Technologies, […], Canada). More specifically, the quantities of hematopoietic growth factors used routinely in HCFA were, 2 International Units per milliliter (2 I.U.ml^−1) of Erythropietin (EPO), 50 nanogram per milliliter (50 ng.ml^−1) of Stem Cell Factor (SCF) and 20 nanogram per milliliter (20 ng/ml^−1) each of Granulocyte-Macrophage-Colony Stimulating Factor (GM-CSF), Granulocyte-Colony Stimulating Factor (G-CSF), Interleukin-1 beta (IL-1β), Interleukin-3 (IL-3) and Interleukin-6 (IL-6) {all growth factors and cytokines are from Stem cell Technologies, Vancouver, Canada,}.\nIn another set of experiments, 50,000 of the same mesenchymal cells were first mixed with nearly 100,000 MNC, held at 37° C. for at least 30 minutes and were processed for colony formation assays. In several experiments, a consistent improvement in the number and cellularity of the hematopoietic colonies was seen when both these two cell types were mixed compared to a reference where only the cells of MNC were used. The increase was ranging from 1.5 to 10-fold. Thus, the enhancement in colony formation obtained with the use of only mesenchymal cells was highly variable and unpredictable among samples. The fact that hematopoietic colonies formed in increased numbers and cellularity only when MNC and mesenchymal cells were processed together is evidence of a new environment created by the mesenchymal cells in which the SPC present in the MNC were more productive. This increase results in activation of the pre-existing but quiescent SPC, formation of new SPC due to self-renewal, and a combination of both factors.\nIn order to create ABME, the mesenchymal cells were covered with the contacting medium comprising hematomodulators contained in IMDM with 20% human serum or fetal bovine serum for a desirable period (range 8-24 hours) and removed. The contacted cells were then washed 2 times using the contacting medium (IMDM +20% FCS) without hematomodulators and used as such or after harvesting the mesenchymal cells, which now represent the composition of in vitro ABME. Optionally, ABME cells can be configured on supports that will distribute them in two or more dimensions for better results. A requisite number of MNC/SPC and cells of the ABME are taken and kept together for a suitable duration (range 0.5 to 6 hours) after which they were processed for in vitro hematopoietic colony formation assays or hematopoiesis.\nThus, the inventors undertook 4 sets of experiments: (a) wherein mononuclear cells were exposed to mesenchymal cells without any treatment; (b) wherein MNC were exposed to mesenchymal cells contacted with a biological agent [TGFβ1] […]", "data": [{"substance": "HumanTransforming Growth Factor beta1 [TGFβ1]", "values": [{"measurement": "efficiency of ABME created", "setting": "1-25 nano gram.ml^-1, mesenchymal cells contacted 8-24 hours", "result": "equally efficient ABME"}, {"measurement": "blood cell colonies formed (number, cellularity)", "setting": "MNC exposed to mesenchymal cells contacted with the agent, compared with (A) untreated mesenchymal cells, FIG. 1", "result": "greater in number and of higher cellularity than (A)"}, {"measurement": "colony formation along lineages GEMM, BFU-E and GM", "setting": "lineage specific colony formation assay, FIG. 3A, vs control without biological agent", "result": "uniformly stimulated"}, {"measurement": "potency in creating ABME from mesenchymal cells", "setting": "used separately", "result": "nearly equipotent"}]}]}
